Test results published in publication PMC5515891 (Scientific Reports, 2017).

molecular target: Opc (Neisseria meningitidis, UniProt Q7DDI3); type: binding; details: Opc+ outer membrane preparation (4 mg/ml, PBS) in cell, 100 µM glycan in syringe; Opc- preparation and PBS controls subtracted
Sequence (Q7DDI3 20-272 limits assumed): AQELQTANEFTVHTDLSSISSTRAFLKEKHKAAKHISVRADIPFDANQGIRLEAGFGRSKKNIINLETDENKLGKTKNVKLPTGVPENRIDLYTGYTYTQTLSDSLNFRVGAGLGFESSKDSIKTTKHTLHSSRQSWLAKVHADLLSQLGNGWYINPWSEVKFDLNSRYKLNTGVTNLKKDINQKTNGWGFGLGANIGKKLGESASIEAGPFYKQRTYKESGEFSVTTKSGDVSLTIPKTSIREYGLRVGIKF

**Q.** How did the Kd turn out when CC(=O)N[C@H]1[C@H]([C@H](O)[C@H](O)CO)O[C@@](OC[C@H]2O[C@@H](O[C@H]3[C@H](O)[C@@H](O)C(O)O[C@@H]3CO)[C@H](O)[C@@H](O)[C@H]2O)(C(=O)O)C[C@@H]1O (stereo partly drawn) [11B, Neu5Acα2-6Galβ1-4Glc] was run?
**A.** The Kd was 713 ± 140 nM.

**Q.** Which Kd does the source give for C[C@@H]1O[C@@H](O[C@H]2C(O)O[C@H](CO)[C@H](O)[C@@H]2O)[C@@H](O)[C@H](O)[C@@H]1O (stereo partly drawn) [compound 71, Fucα1-2Galβ] here?
**A.** Its Kd is 2950 ± 590 nM.

**Q.** Which Kd does the source give for CC(=O)N[C@H]1[C@H](O[C@H]2[C@@H](O)[C@@H](CO)O[C@@H](O[C@H]3[C@H](O)[C@@H](O)C(O)O[C@@H]3CO)[C@@H]2O)O[C@H](CO)[C@@H](O[C@@H]2O[C@H](CO)[C@H](O)[C@H](O)[C@H]2O)[C@@H]1O (stereo partly drawn) [compound 383, Galβ1-4GlcNAcβ1-3Galβ1-4Glcβ] here?
**A.** Its Kd is 1770 ± 690 nM.
